Data published in patent publication US20150190377A1, “NEURONAL REGENERATION” (The Regents of the University of California, a California …, priority 2014, published 2015).
Residue numbers refer to the chain shown, from its start.

Experiments:
[1] = target: T1, SOCS3 (Homo sapiens, UniProt O14543); test: Western blot of phosphorylated STAT3 (SOCS3 inhibition), human 293 cells; format: cell-based; settings: increasing concentration
T1 construct: Western blot analysis of cultured human (293) cells; endogenous in cells; host or cells: human 293 cells
T1 sequence (O14543 1-225): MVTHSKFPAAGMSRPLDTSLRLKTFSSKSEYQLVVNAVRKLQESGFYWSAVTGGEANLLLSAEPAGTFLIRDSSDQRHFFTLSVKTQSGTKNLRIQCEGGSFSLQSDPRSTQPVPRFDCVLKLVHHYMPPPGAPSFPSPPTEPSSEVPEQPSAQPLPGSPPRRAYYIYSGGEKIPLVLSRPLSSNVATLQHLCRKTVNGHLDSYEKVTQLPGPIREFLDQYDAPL
Protocol: (§1) Likewise, the inhibition of SOCS3 was tested following the phosphorylated form of STAT3.

[2] = target: T2, SOCS3 (Mus musculus, UniProt O35718); test: Western blot of phosphorylated STAT3 (SOCS3 inhibition), mouse N2A cells; format: cell-based; settings: increasing concentration
T2 construct: Western blot analysis of cultured mouse (N2A) cells; endogenous in cells; host or cells: mouse N2A cells
T2 sequence (O35718 1-225): T1 sequence (O14543 1-225) with A133T, P137S, S138L, S152P, P155A, P160T, R162K
Protocol: as §1

[3] = target: T3, SOCS3 (Rattus norvegicus, UniProt O88583); test: Western blot of phosphorylated STAT3 (SOCS3 inhibition), rat PC12 cells; format: cell-based; settings: increasing concentration
T3 construct: Western blot analysis of cultured rat (PC12) cells; endogenous in cells; host or cells: rat PC12 cells
T3 sequence (O88583 1-225): T1 sequence (O14543 1-225) with K85E, P137S, S138L, S145F, P148Q, S152P, P155A, S159G, P160T, R162K
Protocol: as §1

[4] = target: T4, PTEN (Homo sapiens, UniProt P60484); test: Western blot of phosphorylated AKT (PTEN inhibition), human 293 cells; format: cell-based; settings: increasing concentrations, pAKT (Ser473)
T4 construct: Western blot analysis of cultured human (293), mouse (N2A) and rat (PC12) cells; endogenous in cells; host or cells: human 293 cells
T4 sequence (P60484 whole entry): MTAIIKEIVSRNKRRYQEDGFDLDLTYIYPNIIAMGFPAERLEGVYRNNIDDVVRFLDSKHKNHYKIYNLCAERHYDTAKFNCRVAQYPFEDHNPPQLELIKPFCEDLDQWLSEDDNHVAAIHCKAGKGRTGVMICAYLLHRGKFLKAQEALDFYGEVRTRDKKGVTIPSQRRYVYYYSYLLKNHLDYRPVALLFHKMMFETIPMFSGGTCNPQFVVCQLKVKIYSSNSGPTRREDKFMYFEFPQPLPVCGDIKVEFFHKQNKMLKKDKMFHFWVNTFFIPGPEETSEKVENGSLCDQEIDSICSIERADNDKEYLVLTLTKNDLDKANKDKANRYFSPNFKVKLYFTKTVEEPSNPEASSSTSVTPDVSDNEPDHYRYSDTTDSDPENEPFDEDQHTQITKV
Protocol: (§2) FIGS. 13A-13D. Western blot analysis of cultured human (293) (FIG. 13A), mouse (N2A) (FIG. 13B) and rat (PC12) (FIG. 13C) cells treated with Luteolin (P2) and Quercetin (P6). FIG. 13D: Protein levels of PTEN, AKT, pAKT (Ser473) and beta-Tubulin were measured.
(§3) The inhibition of PTEN was tested following the phosphorylated form of AKT.

[5] = target: T5, PTEN (Mus musculus, UniProt O08586); test: Western blot of phosphorylated AKT (PTEN inhibition), mouse N2A cells; format: cell-based; settings: increasing concentrations, pAKT (Ser473)
T5 construct: Western blot analysis of cultured human (293), mouse (N2A) and rat (PC12) cells; endogenous in cells; host or cells: mouse N2A cells
T5 sequence (O08586 whole entry): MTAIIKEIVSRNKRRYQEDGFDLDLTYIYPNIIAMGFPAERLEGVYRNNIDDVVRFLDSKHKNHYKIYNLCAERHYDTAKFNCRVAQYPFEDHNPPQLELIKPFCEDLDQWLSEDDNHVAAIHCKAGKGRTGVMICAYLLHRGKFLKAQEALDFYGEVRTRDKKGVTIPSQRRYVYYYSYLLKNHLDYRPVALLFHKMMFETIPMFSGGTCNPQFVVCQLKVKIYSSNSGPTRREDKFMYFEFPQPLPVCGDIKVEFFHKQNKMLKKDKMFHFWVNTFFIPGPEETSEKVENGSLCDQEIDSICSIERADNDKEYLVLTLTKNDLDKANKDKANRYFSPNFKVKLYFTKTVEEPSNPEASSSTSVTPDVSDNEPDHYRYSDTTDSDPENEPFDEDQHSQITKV
Protocol: as §2, §3

[6] = target: T6, PTEN (Rattus norvegicus, UniProt O54857); test: Western blot of phosphorylated AKT (PTEN inhibition), rat PC12 cells; format: cell-based; settings: increasing concentrations, pAKT (Ser473)
T6 construct: Western blot analysis of cultured human (293), mouse (N2A) and rat (PC12) cells; endogenous in cells; host or cells: rat PC12 cells
T6 sequence (O54857 whole entry): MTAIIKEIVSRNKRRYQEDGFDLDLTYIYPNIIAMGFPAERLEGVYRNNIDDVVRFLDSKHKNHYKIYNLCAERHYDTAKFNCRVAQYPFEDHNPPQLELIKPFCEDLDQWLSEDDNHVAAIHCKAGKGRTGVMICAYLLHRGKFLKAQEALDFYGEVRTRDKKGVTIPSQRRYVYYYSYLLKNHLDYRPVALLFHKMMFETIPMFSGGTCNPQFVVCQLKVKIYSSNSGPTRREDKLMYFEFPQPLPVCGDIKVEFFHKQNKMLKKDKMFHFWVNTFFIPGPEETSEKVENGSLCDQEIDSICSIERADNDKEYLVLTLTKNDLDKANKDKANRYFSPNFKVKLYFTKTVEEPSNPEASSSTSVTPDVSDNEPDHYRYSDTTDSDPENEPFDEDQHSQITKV
Protocol: as §2, §3

[7] = system: genes from the M77 network in DRG neurons; test: qPCR of critical PPI network genes in DRG neurons treated with ambroxol; format: cell-based; settings: DRG neurons treated with 60 mM ambroxol (4 days), P-value<0.05, includes ATF3, FOS, JUN, SMAD1, SP1
From the text: (§4) FIGS. 5A-5F. Targeting candidate RAG regulatory network using small-molecules. Gene expression signatures after PNS injury were used to query drug-related expression profiles in the Connectivity Map. Using a pattern-matching algorithm, we selected three drugs (ambroxol, disulfiram and lasalocid) based on enrichment and specificity scores. FIG. 5A: Protein-protein interaction (edges) network of co-expressed and differentially expressed genes (nodes) after PNS injury depicting up-regulation and down-regulation after SN lesion; up-regulation and down-regulation after ambroxol treatment (from Connectivity Map). FIG. 5B: Histogram depicting differences in DRG neurite outgrowth after treatment with drugs. […] FIG. 5C: Histogram depicting differential expression of mRNA for critical genes in PPI network validated by qPCR of DRG neurons treated with […] ambroxol (4 days). Legend (FIG. 5C, top to bottom): ATF3, CASP3, EGR1, FOS, JAK2, JUN, KLF4, MYC, PLAUR, RELA, SMAD1, SP1, STAT1 and STAT3: FIGS. 5D-5F: Ambroxol concentration response. […] FIG. 5E: Photomicrographs of DRG neurons in presence of vehicle (control) or 40 μM ambroxol, immunostained for βIII-tubulin. Images acquired using ImagExpressmicro. Scale bar, 50 μm. FIG. 5F: Histogram depicting concentration-response for neurite outgrowth per neuron vs. ambroxol concentration, mean±SEM for three independent experiments. […]

[8] = system: optic nerve / retinal ganglion cell axons; test: optic nerve regeneration after crush injury in C57BL/6 mice; format: in vivo, mouse; settings: between 200-500 um, after 2 weeks, vs control animals, p-value less than 0.04
Protocol: FIGS. 6A-6E. Ambroxol promotes retinal ganglion cell axonal regeneration. FIG. 6A: Ambroxol (Amb-25 mg/ml) or vehicle (Veh) was injected into the eye just before optic nerve crush (ONC-Day 1). Animals received daily […] of ambroxol (25 mg/ml) or vehicle by intraperitoneal (IP) injection from day 1 to day 14. At day 7 ambroxol (25 mg/ml) or vehicle was injected into the eye. Tracer CTB was injected into the eye on day 11 and animals sacrificed on day 14. FIG. 6B: Representative retina whole mount images with Tuj1 antibody staining 2 weeks post injury and (FIG. 6C) histogram depicting quantification of retinal ganglion cell (RGCs) survival measured by Tuj1 antibody staining Scale bar: 25 um FIG. 6D: Representative confocal images of optic nerve sections from WT animal treated with vehicle (n=10) and WT animal treated with ambroxol (25 mg/ml, n=13). Axons are labeled with CTB. Scale bar: 100 um. Measurements were made blinded to treatment. FIG. 6F: Quantification of number of axons in FIG. 6D as function of distance from crush site. T-test ** p<0.001 * p<0.05.
Ambroxol was tested for the ability to enhance CNS regeneration in vivo after injury. The optic nerve regeneration effect in mice after crush injury was evaluated after treating with and without ambroxol. […] In summary, a FDA approved drug—ambroxol accelerates and improves neural repair in the CNS. […]

[9] = system: optic nerve / retinal ganglion cell axons; test: optic nerve crush in PTEN knockout mice treated with ambroxol; format: in vivo, mouse; settings: at 2500 um, after 2 weeks, vs control animals, p-value 0.02
Protocol: FIGS. 15A-15E. Ambroxol promotes retinal ganglion cell axonal regeneration in PTEN knockout mice. Ambroxol (Amb-25 mg/ml) or vehicle (Veh) was injected into the eye just before optic nerve crush. Animals received daily 300 mg/kg of ambroxol or vehicle by intraperitoneal (IP) injection for the first five days after the crush and then they received 150 mg/kg until day 14. At day 7 ambroxol (25 mg/ml) or vehicle was injected into the eye. Tracer CTB was injected into the eye on day 11 and animals sacrificed on day 14. FIG. 15A: Representative confocal images of optic nerve sections from PTEN^−/− animal treated with vehicle (n=4) and PTEN^−/− animal treated with ambroxol (n=4). Axons are labeled with CTB. Scale bar: 100 um. Measurements were made blinded to treatment. FIG. 15B: Quantification of number of axons in […]. T-test ** p<0.01 * p<0.05. FIG. 15C: Representative retina whole mount images with Tuj1 and P-S6 antibody staining 2 weeks post injury and FIGS. 15D-15E: Quantification of retinal ganglion cell (RGCs) survival measured by Tuj1 and P-S6 antibody staining Scale bar: 25 um.
Without wishing to be bound by any theory, since ambroxol recapitulates many of the core expression changes in the M280, we reasoned that it would promote CNS regeneration. […]

[10] = system: DRG neurons; test: neurite outgrowth in DRG neurons after treatment with drugs; format: cell-based; settings: vs control; p<0.05, t-test; FIG. 5B
From the text: as §4

[11] = system: regeneration-associated marker genes; test: q-RT-PCR of regeneration-associated marker genes after treatment with candidate drugs; format: cell-based, mouse; settings: N2A cell lines treated 48 hours, Gapdh internal control, FIG. 10
Protocol: FIG. 10. Quantitative real-time RT-PCR after treatment of candidate drugs. N2A cell lines were treated with the corresponding drugs for 48 hours and the expression levels of the marker genes was measured by q-RT-PCR, using Gapdh as internal control. Nodes represents the genes tested, the edges represent the direction of regulation (i.e., up-regulation, downregulation) and the edge size represents the extent of fold change.
The gene expression signatures were used to identify FDA approved drugs (Lamb 2007) that may modulate the signaling pathways and gene expression necessary for regeneration. […] Based on the results obtained from the pattern matching algorithm present within the Connectivity Map database, the top three matching expression patterns were chosen based on the connectivity and specificity score, which represented the drugs (ambroxol, lasalocid, and disulfiram). The identified compounds were tested for their effect on gene expression levels of regeneration-associated marker genes and to examine the effect on neurite outgrowth in DRG neurons. […] Since the original pattern was derived from non-neuronal cell lines (30), we tested if ambroxol can change the gene-expression levels of these markers in DRG neurons. […] But, it had no previous relationship to regeneration.

| SMILES | expression level of phosphorylated form of STAT3 (denoting SOCS3 inhibition) [1] | expression level of phosphorylated form of STAT3 (denoting SOCS3 inhibition) [2] | expression level of phosphorylated form of STAT3 (denoting SOCS3 inhibition) [3] | expression level of phosphorylated form of AKT (denoting PTEN inhibition) [4] | expression level of phosphorylated form of AKT (denoting PTEN inhibition) [5] | expression level of phosphorylated form of AKT (denoting PTEN inhibition) [6] | further results |
| --- | --- | --- | --- | --- | --- | --- | --- |
| O=c1c(-c2ccc(O)cc2)coc2cc(O)cc(O)c12 [Genistein, genistein] | increased expression level of phosphorylated form of STAT3 | increased expression level of phosphorylated form of STAT3 | increased expression level of phosphorylated form of STAT3 | – | – | – | – |
| O=c1cc(-c2ccc(O)c(O)c2)oc2cc(O)cc(O)c12 [Luteolin, luteolin] | – | – | – | increased expression level of phosphorylated form of AKT | increased expression level of phosphorylated form of AKT | increased expression level of phosphorylated form of AKT | – |
| Cc1ccc(N(CC2=NCCN2)c2cccc(O)c2)cc1 [Phentolamine, phentolamine] | increased expression level of phosphorylated form of STAT3 | increased expression level of phosphorylated form of STAT3 | increased expression level of phosphorylated form of STAT3 | – | – | – | – |
| O=c1c(O)c(-c2ccc(O)c(O)c2)oc2cc(O)cc(O)c12 [Quercetin, quercetin] | – | – | – | increased expression level of phosphorylated form of AKT | increased expression level of phosphorylated form of AKT | increased expression level of phosphorylated form of AKT | – |
| Nc1c(Br)cc(Br)cc1CNC1CCC(O)CC1 (stereo not drawn) [ambroxol, trans-4-(2-Amino-3,5-dibrombenzylamino)-cyclohexanol] | – | – | – | – | – | – | number of genes with significant differential expression among 14 randomly tested genes from the M77 [7]: 8 genes; increase in axon regeneration beyond the site of the lesion [8]: > 1.5 fold; increase in regeneration beyond the site of the lesion [9]: > 2.9 fold |
| CC[C@@H](C(=O)[C@@H](C)[C@@H](O)[C@H](C)CCc1ccc(C)c(O)c1C(=O)O)[C@H]1O[C@](CC)([C@H]2CC[C@](O)(CC)[C@H](C)O2)C[C@@H]1C [lasalocid] | – | – | – | – | – | – | DRG neurite outgrowth after treatment with drugs [10]: only ambroxol showed significant enhancement; gene-expression levels of marker RAGs [11]: significant changes |
